This note sets out measurements from publication PMC11018872, “Dynamic inter-domain transformations mediate the allosteric regulation of human 5, 10-methylenetetrahydrofolate reductase” (Nature Communications, 2024).

Molecules are shown by their SMILES. pKd: −log10 of the molar value.

Common to all, as to type: binding
In test [1] the target is T1, 5,10-methylenetetrahydrofolate reductase (MTHFR) (Homo sapiens, UniProt P42898).
T1 construct: MTHFRFL aa 1–656
As to the kind of experiment: ITC; cryo-EM structure at […] Å; DSF; HPLC activity assay. (ITC needs no label: the signal is the heat of the interaction.)

In test [2] the target is T1, 5,10-methylenetetrahydrofolate reductase (MTHFR). Put plainly: ITC; cryo-EM structures at […] and […] Å.
For test [3] the target is unchanged. Put plainly: cryo-EM structure at […] Å (SAM-bound state).

T1 sequence (P42898 whole entry, the tested form may be a part): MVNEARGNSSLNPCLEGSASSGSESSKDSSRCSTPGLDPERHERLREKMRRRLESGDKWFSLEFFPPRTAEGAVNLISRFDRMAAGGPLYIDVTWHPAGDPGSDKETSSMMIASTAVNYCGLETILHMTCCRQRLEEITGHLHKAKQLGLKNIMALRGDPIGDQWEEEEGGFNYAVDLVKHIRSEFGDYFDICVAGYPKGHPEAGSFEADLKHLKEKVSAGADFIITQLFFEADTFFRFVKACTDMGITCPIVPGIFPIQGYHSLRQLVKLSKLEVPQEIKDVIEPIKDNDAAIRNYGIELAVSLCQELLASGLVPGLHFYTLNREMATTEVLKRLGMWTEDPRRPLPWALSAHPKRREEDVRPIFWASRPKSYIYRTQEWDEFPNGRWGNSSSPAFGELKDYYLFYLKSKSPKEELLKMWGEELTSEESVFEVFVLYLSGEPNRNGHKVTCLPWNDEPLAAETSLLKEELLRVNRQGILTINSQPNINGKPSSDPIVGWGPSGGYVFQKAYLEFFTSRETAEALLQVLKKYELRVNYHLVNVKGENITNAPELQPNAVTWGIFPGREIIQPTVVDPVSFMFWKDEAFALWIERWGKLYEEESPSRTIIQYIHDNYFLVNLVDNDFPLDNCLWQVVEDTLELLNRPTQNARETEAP

As to `C[S+](CC[C@H](N)C(=O)[O-])C[C@H]1O[C@@H](n2cnc3c(N)ncnc32)[C@H](O)[C@@H]1O` (stereo partly drawn) [SAM, S-adenosyl-L-methionine], the pKd (in general, the Kd on a negative log10 scale, so that one unit is a factor of ten) in test [1] is 6.00 to 6.07.
`Nc1ncnc2c1ncn2[C@@H]1O[C@H](CSCC[C@H](N)C(=O)O)[C@@H](O)[C@H]1O` [SAH, S-adenosyl-L-homocysteine]: the negative logarithm of the Kd (pKd) in test [2] was 6.41 to 6.42.
For `Cc1cc2nc3c(=O)[nH]c(=O)nc-3n(C[C@H](O)[C@H](O)[C@H](O)COP(=O)(O)OP(=O)(O)OC[C@H]3O[C@@H](n4cnc5c(N)ncnc54)[C@H](O)[C@@H]3O)c2cc1C` [FAD, flavin adenine dinucleotide], the “cryo-EM structure at 2.9 Å (SAM-bound state)” value in test [3] is reported as “FAD was found in both CD active sites of the homodimer (Fig. 2c) with clear electron densities”.
